Assay results as given in PubChem BioAssay (NCI).
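Results reflect a 48-hour exposure of cells in 96-well plates to compound at five concentrations. TGI: total growth inhibition.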

Test system: SK-OV-3 ovarian
Test: NCI-60 cell line screen, 48 h

`Cc1ccc(/C=C2/N=C(N/N=C\C(O)C(O)C(O)C(O)CO)NC2=O)cc1` (configuration not stated) and `COc1ccc(/C=N/NC(=O)c2ccc(O)c(CN(C)C)c2)cc1` cannot be ordered by TGI: over 100 µM for the first, over 100 µM for the second.

`CCN(C(=O)N[C@@H](C)C(=O)N[C@@H](Cc1ccccc1)C(=O)OC)c1ccccc1` and `COC(=O)c1ccccc1CC1Cc2cccc(C)c2C1=O` (configuration not stated) cannot be ordered by TGI: over 100 µM for the first, over 100 µM for the second.

First: O=C(NN1C(=O)CS(=O)(=O)C1c1ccc(C(F)(F)F)cc1)c1ccncc1 (configuration not stated)
Second: O=C(CCSC1=NCCCN1)c1ccc(F)cc1
The TGI of the first is higher: over 100 µM for the first, 43.5 µM for the second.

Compared with `Cn1c2ccccc2c2c(=S)c3ccccc3ccc21`, `O=C1C(=Nc2ccc(Nc3ccccc3)cc2)Oc2ccccc21` is lower in TGI: over 100 µM for the first, 23 µM for the second.

`CCOc1c(OC)cc(-c2nc3n(n2)C(=O)C(CC)S3)cc1OC` (configuration not stated) and `COc1ccc(CC(N)=O)cc1OC` cannot be ordered by TGI: over 10 µM for the first, over 1250 µM for the second.

`CC1OC(O[C@H]2C3C=CO[C@@H](OC4OC(CO)C(O)C(O)C4O)C3[C@@]3(COC(=O)/C=C/c4ccccc4)O[C@@H]23)C(O)C(O)C1O` (some centres not stated) and `O=C(NCCCl)O/N=C/c1cccnc1` cannot be ordered by TGI: over 100 µM for the first, over 100 µM for the second.

`CCOC(=O)CNC(=O)NC12CC3CC(CC(C3)C1)C2` and `COc1cc2c(cc1OCCCN1C(=O)c3cccc4cccc(c34)C1=O)N=C[C@@H]1CCCN1C2=O` cannot be ordered by TGI: over 517 µM for the first, over 100 µM for the second.

With `Cc1nc2ccccc2c(-n2cccn2)c1CCn1cccn1` the TGI was over 100 µM.

Test system: SW-620 colon
Test: NCI-60 cell line screen, 48 h

`C=CC1(C)CC(=O)C2(O)C(C)(O1)C(OC(C)=O)C(O)C1C(C)(C)CCC(O)C12C` (configuration not stated) and `O=C1NC(O)CCN1C1OC(CO)C(O)C1O` (configuration not stated) cannot be ordered by TGI: over 150 µM for the first, over 250 µM for the second.

`CN1Cc2c(nc(-c3ccccc3)c[n+]2[O-])N(C)C1` and `COc1ccc(-c2nc3ccccc3c(=S)n2OC(C)=O)cc1` cannot be ordered by TGI: over 100 µM for the first, over 25 µM for the second.

`C=C(CN(C)C)C(=O)c1ccc(C(=O)C(=C)CN(C)C)cc1` and `COc1ccc(/C=N/NC(=O)c2ccc(O)c(CN(C)C)c2)cc1` cannot be ordered by TGI: over 100 µM for the first, over 100 µM for the second.

`O[C@H]1[C@H](O)[C@@H](O)CN2CC[C@H](O)[C@H]12` and `CC1OC(O[C@H]2C3C=CO[C@@H](OC4OC(CO)C(O)C(O)C4O)C3[C@@]3(COC(=O)/C=C/c4ccccc4)O[C@@H]23)C(O)C(O)C1O` (some centres not stated) cannot be ordered by TGI: over 100 µM for the first, over 100 µM for the second.

First: O=C1c2cccc3cccc(c23)C(=O)N1CCCNCCCCNCCCNCCCN1C(=O)c2cccc3cccc(c23)C1=O
Second: COc1cc2c(cc1OCCCN1C(=O)c3cccc4cccc(c34)C1=O)N=C[C@@H]1CCCN1C2=O
The TGI of the first is lower: 4.35 µM for the first, over 63 µM for the second.

`O=c1onc2n1-c1cc(Cl)ccc1C(=S)N1CSCC21` (configuration not stated) and `CN1CCN(Cc2cc3c(nn2)-c2ccccc2C3=O)CC1` cannot be ordered by TGI: over 100 µM for the first, over 100 µM for the second.

`COc1cc(C2c3cc4c(cc3[C@@H](Nc3ccccc3)C3COC(=O)[C@H]23)OCO4)cc(OC)c1O` (some centres not stated) and `COC(=O)c1ccccc1CC1Cc2cccc(C)c2C1=O` (configuration not stated) cannot be ordered by TGI: over 42.9 µM for the first, over 100 µM for the second.

`O=C(O)C(O)C(O)C(O)C(O)CO` (configuration not stated) and `Cc1ccc(/C=C2/N=C(N/N=C\C(O)C(O)C(O)C(O)CO)NC2=O)cc1` (configuration not stated) cannot be ordered by TGI: over 100 µM for the first, over 100 µM for the second.

`CSc1nc2c(c(N(C)C)n1)C(O)n1c(nc3ccccc31)S2` (configuration not stated) and `CC1=C(C#N)c2nc3ccccc3n2C(=O)C1(C)CCO` (configuration not stated) cannot be ordered by TGI: over 100 µM for the first, over 100 µM for the second.

`C[C@@H]1CCC2[C@@H](C)[C@@H](O[C@H]3O[C@@H]4O[C@@]5(C)CCC6[C@H](C)CCC([C@H]3C)[C@]64OO5)O[C@@H]3O[C@@]4(C)CCC1[C@@]23OO4` (some centres not stated) and `CCOC(=O)CNC(=O)NC12CC3CC(CC(C3)C1)C2` cannot be ordered by TGI: over 25 µM for the first, over 550 µM for the second.

First: O=C(c1ccccc1)c1ccc2c(c1)NC(=O)c1ccccc1SSc1ccccc1C(=O)N2
Second: O=C1C(=Nc2ccc(Nc3ccccc3)cc2)Oc2ccccc21
The TGI of the first is higher: over 100 µM for the first, 4.67 µM for the second.

`CCN(CC)c1ccc(/C=C/c2ccnc3ccccc23)cc1` and `Cn1c2ccccc2c2c(=S)c3ccccc3ccc21` cannot be ordered by TGI: over 100 µM for the first, over 100 µM for the second.

First: COc1ccc(C(=O)NCCN(C)C)c2nc3ccccc3cc12
Second: CCN(C(=O)N[C@@H](C)C(=O)N[C@@H](Cc1ccccc1)C(=O)OC)c1ccccc1
The TGI of the first is lower: 5.06 µM for the first, over 100 µM for the second.

`CC(C)(C)N=C(N)NC#N` and `COc1ccc(CC(N)=O)cc1OC` cannot be ordered by TGI: over 100 µM for the first, over 1250 µM for the second.

`N#CC(c1ccccc1)N(CCOCCOCCN(C(=O)c1ccccc1)C(C#N)c1ccccc1)C(=O)c1ccccc1` (configuration not stated) and `Cc1nc2ccccc2c(-n2cccn2)c1CCn1cccn1` cannot be ordered by TGI: over 100 µM for the first, over 100 µM for the second.

Going from `O=C(NN1C(=O)CS(=O)(=O)C1c1ccc(C(F)(F)F)cc1)c1ccncc1` (configuration not stated) to `O=C(CCSC1=NCCCN1)c1ccc(F)cc1`, the TGI falls from over 100 µM to 15.5 µM.

`CCOc1c(OC)cc(-c2nc3n(n2)C(=O)C(CC)S3)cc1OC` (configuration not stated) and `O=C(NCCCl)O/N=C/c1cccnc1` cannot be ordered by TGI: over 10 µM for the first, over 100 µM for the second.

Test system: TK-10 renal
Test: NCI-60 cell line screen, 48 h

`C=CC1(C)CC(=O)C2(O)C(C)(O1)C(OC(C)=O)C(O)C1C(C)(C)CCC(O)C12C` (configuration not stated) and `C[C@@H]1CCC2[C@@H](C)[C@@H](O[C@H]3O[C@@H]4O[C@@]5(C)CCC6[C@H](C)CCC([C@H]3C)[C@]64OO5)O[C@@H]3O[C@@]4(C)CCC1[C@@]23OO4` (some centres not stated) cannot be ordered by TGI: over 34.6 µM for the first, over 25 µM for the second.

`CN1Cc2c(nc(-c3ccccc3)c[n+]2[O-])N(C)C1` and `COc1ccc(-c2nc3ccccc3c(=S)n2OC(C)=O)cc1` cannot be ordered by TGI: over 100 µM for the first, over 25 µM for the second.

`C=C(CN(C)C)C(=O)c1ccc(C(=O)C(=C)CN(C)C)cc1` and `COc1ccc(/C=N/NC(=O)c2ccc(O)c(CN(C)C)c2)cc1` cannot be ordered by TGI: over 100 µM for the first, over 100 µM for the second.

Going from `O=C1c2cccc3cccc(c23)C(=O)N1CCCNCCCCNCCCNCCCN1C(=O)c2cccc3cccc(c23)C1=O` to `COc1cc2c(cc1OCCCN1C(=O)c3cccc4cccc(c34)C1=O)N=C[C@@H]1CCCN1C2=O`, the TGI rises from 12.1 µM to over 100 µM.

`O=c1onc2n1-c1cc(Cl)ccc1C(=S)N1CSCC21` (configuration not stated) and `CN1CCN(Cc2cc3c(nn2)-c2ccccc2C3=O)CC1` cannot be ordered by TGI: over 100 µM for the first, over 100 µM for the second.

`O=C(O)C(O)C(O)C(O)C(O)CO` (configuration not stated) and `Cc1ccc(/C=C2/N=C(N/N=C\C(O)C(O)C(O)C(O)CO)NC2=O)cc1` (configuration not stated) cannot be ordered by TGI: over 100 µM for the first, over 100 µM for the second.

`CSc1nc2c(c(N(C)C)n1)C(O)n1c(nc3ccccc31)S2` (configuration not stated) and `CC1=C(C#N)c2nc3ccccc3n2C(=O)C1(C)CCO` (configuration not stated) cannot be ordered by TGI: over 100 µM for the first, over 100 µM for the second.

Going from `O=C(c1ccccc1)c1ccc2c(c1)NC(=O)c1ccccc1SSc1ccccc1C(=O)N2` to `O=C1C(=Nc2ccc(Nc3ccccc3)cc2)Oc2ccccc21`, the TGI falls from over 100 µM to 12.2 µM.

`CCN(CC)c1ccc(/C=C/c2ccnc3ccccc23)cc1` and `Cn1c2ccccc2c2c(=S)c3ccccc3ccc21` cannot be ordered by TGI: over 100 µM for the first, over 100 µM for the second.

First: COc1ccc(C(=O)NCCN(C)C)c2nc3ccccc3cc12
Second: COC(=O)c1ccccc1CC1Cc2cccc(C)c2C1=O (configuration not stated)
The TGI of the first is 13-fold lower: 5.42 µM for the first, 71.1 µM for the second.

`CC(C)(C)N=C(N)NC#N` and `CCN(C(=O)N[C@@H](C)C(=O)N[C@@H](Cc1ccccc1)C(=O)OC)c1ccccc1` cannot be ordered by TGI: over 100 µM for the first, over 100 µM for the second.

`N#CC(c1ccccc1)N(CCOCCOCCN(C(=O)c1ccccc1)C(C#N)c1ccccc1)C(=O)c1ccccc1` (configuration not stated) and `Cc1nc2ccccc2c(-n2cccn2)c1CCn1cccn1` cannot be ordered by TGI: over 100 µM for the first, over 100 µM for the second.

Going from `O=C(NN1C(=O)CS(=O)(=O)C1c1ccc(C(F)(F)F)cc1)c1ccncc1` (configuration not stated) to `O=C(CCSC1=NCCCN1)c1ccc(F)cc1`, the TGI falls from over 100 µM to 30.8 µM.

`CCOc1c(OC)cc(-c2nc3n(n2)C(=O)C(CC)S3)cc1OC` (configuration not stated) and `CC1OC(O[C@H]2C3C=CO[C@@H](OC4OC(CO)C(O)C(O)C4O)C3[C@@]3(COC(=O)/C=C/c4ccccc4)O[C@@H]23)C(O)C(O)C1O` (some centres not stated) cannot be ordered by TGI: over 10 µM for the first, over 100 µM for the second.
